Reference: ChEMBL document CHEMBL2406948, “Skeletal rearrangement of seven-membered iminosugars: synthesis of (-)-adenophorine, (-)-1-epi-adenophorine and derivatives and evaluation as glycosidase inhibitors” (Bioorg Med Chem, 2013)

Assays:
Rattus norvegicus = species on record: Rattus norvegicus; test: Inhibition of rat intestinal maltase alpha-glucosidase at 1000 uM
[1] = target: T1, Tissue alpha-L-fucosidase (Bos taurus) (UniProt Q2KIM0); test: Inhibition of bovine kidney alpha-L-fucosidase at 1000 uM
T1 sequence (whole entry): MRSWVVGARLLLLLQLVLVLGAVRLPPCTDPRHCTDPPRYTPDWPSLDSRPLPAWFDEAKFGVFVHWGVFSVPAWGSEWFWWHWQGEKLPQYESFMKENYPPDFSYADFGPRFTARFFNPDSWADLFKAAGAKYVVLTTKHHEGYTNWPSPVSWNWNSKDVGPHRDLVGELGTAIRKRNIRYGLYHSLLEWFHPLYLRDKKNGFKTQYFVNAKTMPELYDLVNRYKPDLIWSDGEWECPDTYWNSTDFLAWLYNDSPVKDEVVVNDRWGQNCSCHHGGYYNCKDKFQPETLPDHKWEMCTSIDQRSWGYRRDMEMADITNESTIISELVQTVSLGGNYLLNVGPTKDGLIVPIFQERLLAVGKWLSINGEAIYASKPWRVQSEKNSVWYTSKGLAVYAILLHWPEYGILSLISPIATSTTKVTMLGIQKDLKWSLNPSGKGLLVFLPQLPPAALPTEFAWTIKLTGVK

Aspergillus niger [2] = test: Inhibition of Aspergillus niger amyloglucosidase at 1000 uM
Prunus dulcis = test: Inhibition of almond beta-glucosidase at 1000 uM
Penicillium decumbens = test: Inhibition of Penicillium decumbens alpha-L-rhamnosidase at 1000 uM
[3] = target: Alpha-galactosidase (Coffea arabica) (UniProt Q42656); test: Inhibition of coffee bean alpha-galactosidase at 1000 uM
Beta-galactosidase = target: T2, Beta-galactosidase (Bos taurus, UniProt Q58D55); test: Inhibition of bovine liver beta-galactosidase
T2 sequence (Q58D55 whole entry): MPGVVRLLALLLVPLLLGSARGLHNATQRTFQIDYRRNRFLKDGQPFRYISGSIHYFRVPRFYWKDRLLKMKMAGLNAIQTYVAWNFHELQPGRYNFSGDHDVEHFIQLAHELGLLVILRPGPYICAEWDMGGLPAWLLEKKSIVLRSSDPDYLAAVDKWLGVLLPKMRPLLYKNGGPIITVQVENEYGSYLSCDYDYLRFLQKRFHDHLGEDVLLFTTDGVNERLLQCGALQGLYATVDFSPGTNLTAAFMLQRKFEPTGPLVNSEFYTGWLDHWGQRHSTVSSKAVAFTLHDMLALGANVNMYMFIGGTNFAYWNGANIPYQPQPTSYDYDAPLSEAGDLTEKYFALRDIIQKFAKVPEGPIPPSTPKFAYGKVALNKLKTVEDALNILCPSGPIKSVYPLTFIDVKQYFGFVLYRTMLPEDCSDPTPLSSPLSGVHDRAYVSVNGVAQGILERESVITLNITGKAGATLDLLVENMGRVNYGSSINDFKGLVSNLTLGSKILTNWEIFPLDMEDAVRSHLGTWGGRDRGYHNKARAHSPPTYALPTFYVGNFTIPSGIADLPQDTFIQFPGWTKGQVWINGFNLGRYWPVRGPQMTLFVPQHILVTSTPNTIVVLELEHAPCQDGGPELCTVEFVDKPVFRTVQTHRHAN

Aspergillus niger [4] = test: Inhibition of Aspergillus niger beta-glucosidase at 1000 uM
[5] = target: Oligo-1,6-glucosidase IMA1 (Saccharomyces cerevisiae S288c) (UniProt P53051); test: Inhibition of yeast alpha-glucosidase at 1000 uM
Canavalia ensiformis = test: Inhibition of jack beans alpha-mannosidase at 1000 uM
Helix pomatia = test: Inhibition of snail beta-mannosidase at 1000 uM
[6] = Inhibition of rice alpha-glucosidase; set-up: species or system Oryza sativa
[7] = target: T3, Glucosylceramidase (Bos taurus) (UniProt Q2KHZ8); test: Inhibition of bovine liver beta-glucosidase at 1000 uM
T3 sequence (whole entry): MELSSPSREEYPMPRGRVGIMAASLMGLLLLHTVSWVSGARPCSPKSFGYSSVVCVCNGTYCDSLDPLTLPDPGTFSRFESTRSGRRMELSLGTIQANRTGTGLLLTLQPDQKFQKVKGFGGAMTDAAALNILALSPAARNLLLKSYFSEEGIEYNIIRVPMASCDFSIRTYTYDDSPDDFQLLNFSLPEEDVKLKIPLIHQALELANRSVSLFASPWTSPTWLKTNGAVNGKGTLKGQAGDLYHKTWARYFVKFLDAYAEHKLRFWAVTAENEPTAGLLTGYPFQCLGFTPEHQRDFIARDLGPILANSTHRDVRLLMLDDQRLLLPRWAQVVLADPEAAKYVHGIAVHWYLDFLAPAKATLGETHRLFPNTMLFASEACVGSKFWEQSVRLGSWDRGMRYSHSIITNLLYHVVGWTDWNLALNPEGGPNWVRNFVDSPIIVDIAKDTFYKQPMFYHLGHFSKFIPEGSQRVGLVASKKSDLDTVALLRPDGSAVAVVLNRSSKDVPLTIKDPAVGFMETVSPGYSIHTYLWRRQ

[8] = target: T4, Uncharacterized protein (Sus scrofa) (UniProt I3LIR5); test: Inhibition of pig kidney alpha, alpha trehalase at 1000 uM
T4 sequence (whole entry): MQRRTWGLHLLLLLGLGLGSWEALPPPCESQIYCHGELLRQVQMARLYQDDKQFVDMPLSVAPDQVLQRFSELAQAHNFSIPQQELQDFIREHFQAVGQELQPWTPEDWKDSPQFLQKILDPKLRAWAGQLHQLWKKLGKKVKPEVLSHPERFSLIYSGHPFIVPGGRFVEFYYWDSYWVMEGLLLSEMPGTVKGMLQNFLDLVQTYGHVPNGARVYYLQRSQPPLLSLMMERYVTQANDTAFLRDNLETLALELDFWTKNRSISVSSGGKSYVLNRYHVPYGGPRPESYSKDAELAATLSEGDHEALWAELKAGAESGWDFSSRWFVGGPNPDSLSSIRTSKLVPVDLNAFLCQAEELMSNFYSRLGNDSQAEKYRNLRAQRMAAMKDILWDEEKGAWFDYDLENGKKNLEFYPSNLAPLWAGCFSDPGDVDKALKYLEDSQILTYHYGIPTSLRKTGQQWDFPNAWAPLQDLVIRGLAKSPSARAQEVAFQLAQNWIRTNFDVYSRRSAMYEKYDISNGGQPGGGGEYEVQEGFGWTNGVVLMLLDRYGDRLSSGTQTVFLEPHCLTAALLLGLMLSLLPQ

[9] = target: T5, Tissue alpha-L-fucosidase (Bos taurus, UniProt Q2KIM0); test: Inhibition of bovine kidney alpha-L-fucosidase
T5 sequence (Q2KIM0 whole entry): T1 sequence (whole entry)

Chain of Oligo-1,6-glucosidase IMA1 (Saccharomyces cerevisiae S288c) (P53051 whole entry): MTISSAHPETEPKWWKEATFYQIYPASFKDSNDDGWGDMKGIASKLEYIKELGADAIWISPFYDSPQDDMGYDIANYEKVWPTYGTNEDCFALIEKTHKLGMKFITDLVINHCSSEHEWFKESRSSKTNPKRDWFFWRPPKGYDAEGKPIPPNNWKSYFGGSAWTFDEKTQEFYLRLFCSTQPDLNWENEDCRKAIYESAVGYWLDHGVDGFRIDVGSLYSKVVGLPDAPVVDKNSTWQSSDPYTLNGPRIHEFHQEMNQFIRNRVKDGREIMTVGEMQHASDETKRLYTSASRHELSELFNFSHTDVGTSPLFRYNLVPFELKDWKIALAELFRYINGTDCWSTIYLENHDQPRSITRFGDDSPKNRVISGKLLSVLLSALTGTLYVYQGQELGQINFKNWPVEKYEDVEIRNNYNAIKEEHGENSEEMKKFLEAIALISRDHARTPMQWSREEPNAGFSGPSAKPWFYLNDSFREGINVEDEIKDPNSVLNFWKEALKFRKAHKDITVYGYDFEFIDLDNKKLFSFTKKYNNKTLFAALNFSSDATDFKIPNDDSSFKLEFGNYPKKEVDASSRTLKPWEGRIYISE
Chain of Alpha-galactosidase (Coffea arabica) (Q42656 16-378 limits assumed): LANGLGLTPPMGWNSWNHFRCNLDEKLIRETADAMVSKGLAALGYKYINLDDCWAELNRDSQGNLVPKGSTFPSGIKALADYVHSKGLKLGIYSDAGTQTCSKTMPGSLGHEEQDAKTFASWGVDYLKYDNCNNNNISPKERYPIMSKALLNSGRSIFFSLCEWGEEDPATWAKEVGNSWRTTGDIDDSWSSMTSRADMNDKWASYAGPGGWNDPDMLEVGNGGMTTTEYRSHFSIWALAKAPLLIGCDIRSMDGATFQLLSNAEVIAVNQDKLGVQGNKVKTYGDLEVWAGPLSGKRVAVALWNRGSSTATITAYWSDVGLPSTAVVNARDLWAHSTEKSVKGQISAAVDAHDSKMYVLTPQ

## CCC[C@@H]1NC[C@@H](O)[C@@H](O)[C@H](O)[C@H]1O
Rattus norvegicus
  inhibition: 0%
[1]
  inhibition: 0%
Aspergillus niger [2]
  inhibition: 0%
Prunus dulcis
  inhibition: 0%
Penicillium decumbens
  inhibition: 14.8%
[3]
  inhibition: 46%
Beta-galactosidase
  IC50: 541 µM
Aspergillus niger [4]
  inhibition: 9.1%
[5]
  inhibition: 0%
Canavalia ensiformis
  inhibition: 1.6%
Helix pomatia
  inhibition: 3.6%
[6]
  IC50: 839 µM
[7]
  inhibition: 6%
[8]
  inhibition: 0%

## O[C@H]1[C@H](O)[C@@H](O)CNC[C@H]1O
[9]
  Ki: 4.6 µM
